The text below walks through data of patent US8273788B2, “Five-membered iminocyclitol derivatives as selective and potent glycosidase inhibitors: new structures for antivirals and osteoarthritis therapeutics” (Academia Sinica, Taiwan, priority 2005, dated 2012).

Read-outs that look alike come from different tables or passages of the source. Bounds are passed on as bounds.

Data set [1] has as its target N-acetyl-β-hexosaminidase. As to the kind of experiment: N-acetyl-β-hexosaminidase inhibition assay (in situ screen, IC50, Ki). To be noted: for IC50: pure compound, read-out: N-acetyl-β-hexosaminidse IC50; for N-acetyl-β-hexosaminidse Inhibition (%): reaction product at 30 μM, in situ screening. The data set is classed as biochemical, jack bean. On the procedure: (§1) A mixture of iminocyclitol 4, a carboxylic acid (1 equiv, Scheme 2), diisopropyl ethylamine (DIEA, 2.2 equiv), and (1H-benzotriazole-1-yl)-1,1,3,3-tetramethyl-uronium hexafluorophosphate (HBTU, 1.1 equiv) in DMSO was shaken in 96-well microtiter plates for 5 h. Crude reaction products were randomly selected (30%) and analyzed by ESI-MS to ensure the presence of the desired products. The reaction mixture was diluted by appropriate buffer solutions and transferred to another 96-well microtiter plate for screening directly without any purification. […] Assuming the amide formation is complete, the percentage of inhibition relative to the control was calculated on the basis of absorbance at 405 nm for p-nitrophenol released from their corresponding substrates.
(§2) Enzyme assay. General procedure for the assay with various glycosidases. The initial velocities of the hydrolysis were measured spectrophotometrically at various concentrations of p-nitrophenyl-glycopyranoside (4 mM, 2 mM, 1 mM, 0.5 mM, 0.25 mM, 0.125 mM, 0.0625 mM) at 405 nm using Bio Assay Reader (Perkin Elmer HTS 7000 Plus) at 30° C. The obtained data were fitted into the Michaelis-Menten equation by using the Kaleida Graph program to determine the apparent Km values. […] The assays performed in wells of the microtiter plate contained either sodium phosphate buffer (50 mM, pH 7, for α- and β-glucosidase, α- and β-galactosidase, α- and β-mannosidase, α-fucosidase), or Mcllvaine's buffer (25 mM, pH 6, N-acetyl-β-hexosaminidase, jack bean).
(§3) The secondary plot was generated by plotting the apparent Km values as a function of inhibitor concentrations. Ki was calculated from the negative value of the x-intercept of this plot.

The target in data set [2] is human N-acetyl-β-hexosaminidases. To be noted: previous study [30]; cited from earlier work.
The target of data set [3] is β-glucosidase. As to the kind of experiment: β-glucosidase inhibition assay (in situ screen, IC50, Ki). To be noted: for IC50: pure compound; for β-glucosidase Inhibition (%): reaction product at 20 μM, in situ screening. The data set is classed as biochemical, almonds. On the procedure: as §1, §2, §3
The target of data set [4] is T1, α-glucosidase (Saccharomyces cerevisiae, UniProt P53341).
T1 construct: purchased Sigma Co. (St. Louis, Mo.); host or cells: baker's yeast
The experiment in a line: α-glucosidase inhibition assay (in situ screen, IC50, Ki). The data set is classed as biochemical, baker's yeast. As to conditions: for IC50: pure compound. On the procedure: as §1
General procedure for coupling reactions and in situ screening. To a DMSO solution (10 μL) in each well of a 96-well microtiter plate was added each carboxylic acid (10 μL from a 10 mm stock solution in DMSO, 0.1 μmol), HBTU (10 μL from a 11 mm stock solution in DMSO, 1.1 equiv, 0.11 μmol), and DIEA (10 μL from a 22 mM stock solution in DMSO, 2.2 equiv, 0.22 μmol).
as §2, §3

Data set [5] deals with Japanese encephalitis virus (JEV). The experiment in a line: Anti-JEV cell-based assay (plaque forming assay, BHK-21 cells). To be noted: for IC50: read-out: JEV IC50; for IC50 / IC90: M.O.I. = 0.1, virus production, BHK-21 cells; for IC90: read-out: JEV IC90.
The test system of data set [6] is dengue virus serotype 2 (DEN-2). As to the kind of experiment: Anti-DEN-2 cell-based assay (plaque forming assay, BHK-21 cells). As to conditions: for IC50: read-out: DEN IC50; for IC50 / IC90: M.O.I. = 0.1, virus production, BHK-21 cells; for IC90: read-out: DEN IC90.
The subject of data set [7] is SARS-CoV. The data set is classed as cell-based, SARS-CoV (H. K. strain). To be noted: Vero E6 cells.
The test system of data set [8] is BHK-21 cells. The experiment in a line: XTT cell viability assay. The class given is cell-based. As to conditions: 10 μM, FIG. 2A. The protocol:
XTT assay. To determine cell viability, a colorimetric XTT-based assay was performed (Cell Proliferation Kit II; Roche). BHK-21 cells in a 96-well plate were incubated with various concentrations of inhibitors for 2 days before the XTT labeling reagent was added to the culture medium. Cells were incubated at 37° C. for about 30 min and then read by an enzyme-linked immunosorbent assay (ELISA) reader at 450 nm (Molecular Devices).
A general note: Formazan colour is commonly taken as a measure of viable cells.

Data set [9] deals with human chondrosarcoma cells. To be noted: cell-associated fraction and culture supernatant; previous study; cited from earlier work.
Data set [10] has as its target human placenta N-acetyl-β-hexosaminidase. The experiment in a line: Kinetic analysis of human placenta β-hexosaminidase. The data set is classed as biochemical. As to conditions: substrate 4-MU-GNAc, pH 4.5. On the procedure:
Our strategy began with reductive amination of compound 5 with aldehydes of different lengths to give compounds 43-49 (FIG. 4). The intermediates were either deprotected under acidic conditions or hydrogenolysed to give primary amines 50-56. […] Thus, the inhibition studies of compounds 51-56 against human placenta N-acetyl-β-hexosaminidase were carried out. 4-Methylumbelliferyl N-acetyl-β-D-glucosaminide (4-MU-GNAc) was used as the substrate. The apparent Km and Vmax values for each substrate were calculated from the Lineweaver-Burke double reciprocal plot of [1/v]/[1/S]. The Ki values were determined from a replot of the Km (app) vs the inhibitor concentration. […] (FIG. 4). […] Compound 54 with a heptamine moiety was the strongest inhibitor. […] As the crystal structure of human β-hexosaminidase B is now avalible,^[43] its complex with 54 was modeled to reveal a narrow hydrophobic cleft in the active site, which is mainly enclosed by the side-chain groups of residues W424, Y450, […], L453 and the backbone of residues K425 and D426 (FIG. 5). The amino group at the terminal site is expected to be largely protonated when binding with the enzyme. It presumably forms a salt bridge with the secondary aglycon binding site of the enzyme.^[44] It appears that the alkyl linkage is long enough to bring the amine end near enough to have hydrogen-bond interactions with the backbone carbonyl of K425 and A447 and a possible ionic interaction with the carboxyl group of D426.
Kinetic analysis of human placenta β-hexosaminidase. Incubations were performed in a total volume of 200 μL. Unless otherwise stated, reaction mixtures contained 100 mM citrate buffer (pH 4.5), various amount of 4-methylumbelliferyl N-acetyl-β-D-glucosaminide, and various amounts of inhibitors with 0.02 mU/well of β-hexosaminidase. After incubation for 15 min at 30° C., the reaction was terminated by the addition of 0.5 M sodium glycine buffer, pH 10.5. Enzyme activity was measured by the release of 4-methylumbelliferone with the excitation wavelength of 360 nm and the emission wavelength of 460 nm.

Data set [11] has as its system dengue virus serotype 2 (DEN-2). As to conditions: earlier work [16]; cited from earlier work.
The subject of data set [12] is Japanese encephalitis virus (JEV). As to conditions: earlier work [16]; cited from earlier work.
The mark [13] stands for this setting: reaction product at 20 μM, in situ screening.

T1 sequence (P53341 whole entry): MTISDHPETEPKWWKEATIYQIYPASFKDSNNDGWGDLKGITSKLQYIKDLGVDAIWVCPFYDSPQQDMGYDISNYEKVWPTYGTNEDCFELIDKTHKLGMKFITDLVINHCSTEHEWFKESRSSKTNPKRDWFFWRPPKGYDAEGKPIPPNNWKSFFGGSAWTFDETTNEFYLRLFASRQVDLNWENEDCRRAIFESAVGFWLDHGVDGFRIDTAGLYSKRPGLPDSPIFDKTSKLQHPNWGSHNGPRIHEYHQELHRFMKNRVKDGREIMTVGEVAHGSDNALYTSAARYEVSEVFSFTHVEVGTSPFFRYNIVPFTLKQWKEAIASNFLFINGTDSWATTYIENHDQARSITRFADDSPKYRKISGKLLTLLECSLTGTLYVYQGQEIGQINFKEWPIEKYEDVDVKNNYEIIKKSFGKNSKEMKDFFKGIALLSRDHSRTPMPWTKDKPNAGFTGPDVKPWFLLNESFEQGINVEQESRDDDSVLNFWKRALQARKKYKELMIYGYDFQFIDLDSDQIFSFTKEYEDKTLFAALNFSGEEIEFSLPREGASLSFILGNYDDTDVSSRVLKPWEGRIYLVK

One may read the IC50 as the point on the concentration scale where inhibition reaches its midpoint. For orientation: Ki means a measure of affinity in units of concentration, obtained from inhibition or displacement. For orientation: inhibition means the drop in the measured response relative to a control, in per cent. As for `CC(=O)NC[C@H]1N[C@H](CO)[C@@H](O)[C@@H]1O` [Compound 5], the IC50 in [1] was 0.16 µM; in [3], > 500 µM; in data set [4] it was 280 µM. Also, the “N-acetyl-β-hexosaminidse Inhibition (%)” value in data set [1] was 85%. For the same molecule, the inhibitory constant (Ki) in data set [1] (value in brackets, read-out: N-acetyl-β-hexosaminidse (Ki)) was 22 nM; in [2], 24 nM. Further, the “β-glucosidase Inhibition (%)” value in [3] is reported as 20%. The inhibition at 20 µM in data set [4] (setting [13]) came to 12%.

Take `O=C(NC[C@H]1N[C@H](CO)[C@@H](O)[C@@H]1O)C1Cc2ccccc21` (stereo partly shown) [Compound 24]: in [5] (at 50 and 100 μM), the “inhibition of JEV infection” value was “no inhibition”. Further, the IC50 in [1] stood at 11 µM; in [3], 92 µM; in data set [4], 0.15 µM. In [1], the “N-acetyl-β-hexosaminidse Inhibition (%)” value was 9%. Besides, the “inhibition of DEN-2 infection” value in data set [6] (at 50 and 100 μM) is reported as “no inhibition”. In addition, the “β-glucosidase Inhibition (%)” value in data set [3] was found to be 45%. Besides, the “selectivity for α- over β-glucosidase” value in data set [4] is 600 fold. Also, the “α-glucosidase Inhibition (%)” value in data set [4] (setting [13]) was 93%. The Ki worked out at 53 nM in [4] (text b9, read-out: Ki, α-glucosidase); 53 nM in [4] (text b34, read-out: Ki against yeast α-glucosidase); 53 nM in data set [4] (value in brackets, read-out: α-glucosidase (Ki)). Moreover, the “increase in activity compared to parent core 4” value in data set [4] (α-glucosidase) turned out to be 100 fold.

As usually defined, the IC90 is the point of the concentration-response curve where the effect stands at 90%. For the molecule `CCCCCCCCCCN1C(CO)C(O)C(O)C1CNC(=O)C1Cc2ccccc21` (stereo not shown) [Compound 37], the results for the IC50 in data set [7], in data set [5] and in data set [6] were 3.3 to 10 µM, 9.6 ± 0.8 µM and 4.7 µM, respectively. For the same molecule, the IC90 in [5] came to 18 ± 0.2 µM; in data set [6], 9.2 µM.

Regarding `CCCCCCCCCCCCN1C(CO)C(O)C(O)C1CNC(=O)C1Cc2ccccc21` (stereo not shown) [Compound 38], in data set [5], the IC50 came to 7.6 ± 0.1 µM and the IC90 came out at 9.7 ± 0.1 µM. Further, in data set [6], the IC50 was 6 ± 0.5 µM and the IC90 is 9.1 ± 0.3 µM. Moreover, in [8], the “cytotoxicity (XTT assay, cell proliferation)” value is listed as “low level of cytotoxicity”.

For `CC(=O)NC[C@@H]1[C@@H](O)[C@H](O)[C@@H](CO)N1C` [Compound 42, (2R,3R,4R,5R)—N-methyl-2-(acetamido-methyl)-3,4-dihydroxy-5-(hydroxymethyl)pyrrolidine], in data set [9], the “effect on glycosaminoglycans (GAGs)” value was “accumulation of glycosaminoglycans (GAGs) in the cell-associated fraction and a decrease in the release of GAGs into the culture supernatant”. Moreover, the inhibition constant (Ki) in data set [2] is 24 nM.

In turn, `CC(=O)NCC1C(O)C(O)C(CO)N1CCCCCCCN` (stereo not shown) [Compound 54] returned a Ki in [10] of 2.6 nM.

In data set [10], `CC(=O)NCC1C(O)C(O)C(CO)N1CCOCCOCCN` (stereo not shown) [Compound 56] yielded an inhibition constant (Ki) of 60 nM.

Regarding `CCCCCCN1C(CO)C(O)C(O)C1CNC(C)=O` (stereo not shown) [Compound 57], in [10], the Ki worked out at 180 nM.

Consider `CCCCCCCN1C(CO)C(O)C(O)C1CNC(C)=O` (stereo not shown) [Compound 58], for which the affinity in data set [10], expressed as Ki, was 250 nM.

Turning to `CCCCCCCCN1C(CO)C(O)C(O)C1CNC(C)=O` (stereo not shown) [Compound 59], the inhibitory constant (Ki) in data set [10] turned out to be 160 nM.

Turning to `CCCCCCCCCN1C[C@H](O)[C@@H](O)[C@@H](O)[C@H]1CO` [NN-DGJ, N-nonyldeoxygalactonojirimycin], the “inhibition of DEN-2” value in data set [11] is “did not inhibit”. Besides, in data set [12], the “inhibition of JEV” value is reported as “did not inhibit”.
